Data set [1] in a line: Mouse PK Analysis (plasma LC/MS/MS, noncompartmental PK parameters). More on the design: AUC(0-t): concentration or dose not given beside the values. It counts as in vivo. Conditions: mouse; mice, oral administration, plasma. Here is the method:
Compounds 30 and 29 were administered to mice orally. After 6 hours or 24 hours, splenocytes cells were harvested. ITK was evaluated by Western blotting. Plasma concentrations were determined by LC/MS/MS. Plasma samples were protein precipitated by addition of 100 μl of acetonitrile containing 50 ng/ml of internal standard. The resulting mixture was vortexed and centrifuged at 4000 RPM for 5 minutes. An aliquot of the resultant supernatant (75 μl) was added to 75 μl of 0.1% formic acid in water to constitute the final sample for injection. Samples were injected on a Shimadzu Exion LC Binary Gradient AD Pump HLPC system connected to a Sciex QTRAP 6500+ mass spectrometer. Five μl of sample was injected onto a Waters Acquity UPLC BEH C18 column 130A (2.1×30 mm, […]) at 40° C. utilizing a flow rate of 700 μl/minute. Mobile Phase A was 0.1% formic acid in water and mobile phase B was 0.1% formic acid in acetonitrile. A linear gradient of 15-95% B over 1.0 minute was used. The mass spectrometer was operated in positive ion electrospray mode with multiple reaction monitoring for maximum sensitivity. Sciex Analyst software (version 1.6.3) was used for LC/MS/MS instrument control and acquisition. Compound concentration was determined against a standard curve of internal standard versus compound peak area ratio. Noncompartmental PK parameters were determined using Phoenix 32 software (version 8.2.0.4383) from Certara. Plasma concentrations from the LC/MS/MS analyses, dose, route of administration, and desired units were utilized for PK parameter calculations. […] FIG. 3C provides the concentration over time of compound 30 following in vivo oral administration in the 6 hour and 24 hour assays.
Cmax, Tmax and AUClast were all calculated using a WinNonLin Phoenix 64 v 8.2.0.4383. Using non-compartmental analysis, Tmax, Cmax and AUClast were determined as follows:
Tmax—Time of maximum observed concentration. Cmax—Maximum observed concentration, occurring at time Tmax, as defined above. AUClast—Area under the curve from the time of dosing to the time of the last measurable (positive) concentration (Tlast).

Data set [2] deals with T1, ITK (Homo sapiens, UniProt Q08881).
T1 construct: Compounds provided herein were assayed in vitro with ITK HiBit cell lines; endogenous in cells; host or cells: Molt4 (ATCC CRL-1552 [sic]), monoclonal clone 1C10
T1 sequence (Q08881 1-620): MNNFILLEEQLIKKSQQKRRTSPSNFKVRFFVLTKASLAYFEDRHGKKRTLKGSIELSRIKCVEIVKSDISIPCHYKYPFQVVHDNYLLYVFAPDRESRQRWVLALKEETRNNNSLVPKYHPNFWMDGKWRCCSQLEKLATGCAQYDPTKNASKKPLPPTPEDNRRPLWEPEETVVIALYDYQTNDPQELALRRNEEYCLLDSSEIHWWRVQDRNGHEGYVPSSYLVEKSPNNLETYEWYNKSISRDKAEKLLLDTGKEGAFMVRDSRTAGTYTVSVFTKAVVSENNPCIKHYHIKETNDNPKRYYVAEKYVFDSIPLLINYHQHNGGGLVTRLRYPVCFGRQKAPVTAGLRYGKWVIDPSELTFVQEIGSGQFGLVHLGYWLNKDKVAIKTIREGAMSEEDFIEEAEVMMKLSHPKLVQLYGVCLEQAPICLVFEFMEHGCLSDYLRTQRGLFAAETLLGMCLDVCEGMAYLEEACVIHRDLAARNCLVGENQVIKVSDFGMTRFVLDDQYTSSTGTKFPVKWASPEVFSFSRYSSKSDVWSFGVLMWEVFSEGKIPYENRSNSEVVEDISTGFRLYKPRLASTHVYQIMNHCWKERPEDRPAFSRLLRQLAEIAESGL
As to the kind of experiment: ITK Degradation HiBiT Assay. Particulars: C-terminal HiBiT-tagged Molt4 cells, 4 hrs incubation; for Dmax: MOLT-4, read-out: HiBiT DMax (%). It counts as cell-based. The protocol:
Compounds provided herein were assayed in vitro with ITK HiBit cell lines. Compound dilution series (11-point, 5 fold dilutions in DMSO, columns 2-12 with replicate in rows A/B, C/D, E/F, G, H at 2000× the final required concentrations were prepared in 96 well plate (Falcon, cat. no. 353077). Column 1, rows A-H were control DMSO. The 2000× solutions ranged from 2 mM to 1.024 nM (final assay concentration range 1 μM to […]). The 2000× solutions were added to cells in […], for a final DMSO concentration of 0.5% and final assay compound concentration of 1×. For the cells, C-terminal HiBiT-tagged Molt4 cells (ATCC CRL-1552, monoclonal cell line clone 1C10) were plated at 1×10^6 cells/mL, 100 μL/well ([…]) in complete RPMI (10% FBS, 1% L-glutamine). The cells were incubated with compound 32 and compound 30 for 4 hrs at 32° C./6% CO2.
Following incubation, 100 μL of complete Nano-Glo HiBiT Lytic Detection Reagent (Nano-Glo HiBiT Lytic Buffer with 1:50 Nano-Glo HiBiT Lytic Substrate and 1:100 LgBiT Protein; Promega cat. no. N3O40) was added. Cells were further incubated for 10 min at room temperature (RT). Luminescence units (LU) were read on an EnVision plate reader (Perkin Elmer, 0.1 sec per well). Percent ITK remaining per sample was calculated as follows: […]
Using Graphpad Prism, % ITK remaining values were plotted as a function of compound concentration. To determine DC50 and Dmax values, resulting curves were fit to the Prism curve-fitting equation “log(inhibitor) vs response−Variable slope (four parameters)” (reported best fit value IC50 used as DC50). ITK was measured with antibody-based MSD (Meso-Scale Discovery) assays shown below.
(In general: HiBiT is a short tag that completes a luciferase, so light tracks the accessible tagged protein.)

Experimental findings from patent publication US20230158151A1 (NURIX THERAPEUTICS, INC., priority 2021, published 2023) are described below.

The term AUC(0-t) denotes exposure summed from dosing to a finite time, without extrapolation to infinity. What is called Cmax is the highest concentration seen after dosing. In general, Tmax refers to the time at which the peak concentration occurs. The Dmax is the largest share of the target that was removed. Usually DC50 stands for the concentration at which degradation of the target reaches its halfway point.

Consider `C[C@@H](C(=O)N(C)c1ccc2cc(-c3n[nH]c4c3C[C@@H]3C(F)(F)[C@]3(C)C4)[nH]c2c1)N1CCN(CC2CCN(c3ccc(N4CCC(=O)NC4=O)cn3)CC2)CC1` [Compound 29, (S)—N-(2-((4aS,5aR)-5,5-difluoro-5a-methyl-1,4,4a,5,5a,6-hexahydrocyclopropa[f]indazol-3-yl)-1H-indol-6-yl)-2-(4-((1-(5-(2,4-dioxotetrahydropyrimidin-1(2H)-yl)pyridin-2-yl)piperidin-4-yl)methyl)piperazin-1-yl)-N-methylpropanamide], for which, in data set [1], the AUC(0-t) stood at 1.98 µM·h, the concentration peaked (Cmax) at 694 nM and the Tmax came to 3.3 h. The Dmax in data set [2] came to 76%.

With `CN(C(=O)CCC1CCN(c2ccc(C3CCC(=O)NC3=O)cn2)CC1)c1ccc2cc(-c3n[nH]c4c3C[C@@H]3C(F)(F)[C@]3(C)C4)[nH]c2c1` (stereo partly drawn) [Compound 4, N-(2-((4aS,5aR)-5,5-difluoro-5a-methyl-1,4,4a,5,5a,6-hexahydrocyclopropa[f]indazol-3-yl)-1H-indol-6-yl)-3-(1-(5-(2,6-dioxopiperidin-3-yl)pyridin-2-yl)piperidin-4-yl)-N-methylpropanamide], in data set [1], the AUC(0-t) is 7.07 µM·h, the maximum concentration (Cmax) was 2430 nM and the Tmax was determined as 1 h. For the same molecule, the greatest degradation seen (Dmax) in data set [2] turned out to be 82%.

As for `C[C@@H](C(=O)N(C)c1ccc2cc(-c3n[nH]c4c3CCC(C)(C)C4)[nH]c2c1)N1CCN(CC2CCN(c3ccc(N4CCC(=O)NC4=O)cn3)CC2)CC1` [Compound 31, (S)—N-(2-(6,6-dimethyl-4,5,6,7-tetrahydro-1H-indazol-3-yl)-1H-indol-6-yl)-2-(4-((1-(5-(2,4-dioxotetrahydropyrimidin-1(2H)-yl)pyridin-2-yl)piperidin-4-yl)methyl)piperazin-1-yl)-N-methylpropanamide], in data set [1], the AUC(0-t) was 16.5 µM·h, the Cmax was 3080 nM and the Tmax stood at 2 h. The Dmax in data set [2] came to 84%.

As for `CN(C(=O)CC1CCN(CC2CCN(c3ccc(C4CCC(=O)NC4=O)cn3)CC2)CC1)c1ccc2cc(-c3n[nH]c4c3C[C@@H]3C(F)(F)[C@]3(C)C4)[nH]c2c1` (stereo partly drawn) [Compound 6, N-(2-((4aS,5aR)-5,5-difluoro-5a-methyl-1,4,4a,5,5a,6-hexahydrocyclopropa[f]indazol-3-yl)-1H-indol-6-yl)-2-(1-((1-(5-(2,6-dioxopiperidin-3-yl)pyridin-2-yl)piperidin-4-yl)methyl)piperidin-4-yl)-N-methylacetamide], the greatest degradation seen (Dmax) in data set [2] turned out to be 85%.

`CC1(C)CCc2c(-c3cc4ccc(N5CCC6(CCN(CC7CCN(c8ccc(C9CCC(=O)NC9=O)cn8)CC7)CC6)C5=O)cc4[nH]3)n[nH]c2C1` (stereo not shown) [Compound 24, 3-(6-(4-((2-(2-(6,6-dimethyl-4,5,6,7-tetrahydro-1H-indazol-3-yl)-1H-indol-6-yl)-1-oxo-2,8-diazaspiro[4.5]decan-8-yl)methyl)piperidin-1-yl)pyridin-3-yl)piperidine-2,6-dione]: in data set [1], the AUC(0-t) was 1.43 µM·h, the highest concentration (Cmax) turned out to be 610 nM and the time to peak (Tmax) turned out to be 6 h. In data set [2], the DC50 is 0.6 nM and the Dmax turned out to be 92%.

For the molecule `CC1(C)CCc2c(-c3cc4ccc(C(=O)N5CCC(CN6CCN(c7ccc(C8CCC(=O)NC8=O)cc7)CC6)CC5)cc4[nH]3)n[nH]c2C1` (stereo not shown) [Compound 37, 3-(4-(4-((1-(2-(6,6-dimethyl-4,5,6,7-tetrahydro-1H-indazol-3-yl)-1H-indole-6-carbonyl)piperidin-4-yl)methyl)piperazin-1-yl)phenyl)piperidine-2,6-dione], in data set [1], the AUC(0-t) came out at 72 µM·h, the Cmax worked out at 5400 nM and the time to peak (Tmax) amounted to 2 h. Further, in data set [2], the DC50 was determined as 2.6 nM and the Dmax was determined as 79%.

On to `C[C@@]12Cc3[nH]nc(-c4cc5ccc(N6CCC7(CCN(CC8CCN(c9ccc(C%10CCC(=O)NC%10=O)cn9)CC8)CC7)C6=O)cc5[nH]4)c3C[C@@H]1C2(F)F` (stereo partly drawn) [Compound 28, 3-(6-(4-((2-(2-((4aS,5aR)-5,5-difluoro-5a-methyl-1,4,4a,5,5a,6-hexahydrocyclopropa[f]indazol-3-yl)-1H-indol-6-yl)-1-oxo-2,8-diazaspiro[4.5]decan-8-yl)methyl)piperidin-1-yl)pyridin-3-yl)piperidine-2,6-dione], for which, in data set [1], the AUC(0-t) was determined as 1.56 µM·h, the highest level (Cmax) was 379 nM and the time of peak concentration (Tmax) was determined as 6 h. The Dmax in data set [2] came out at 91%.

Turning to `CC1(C)CCc2c(-c3cc4ccc(C(=O)N5CCC(CN6CCN(c7ccc(C8CCC(=O)NC8=O)nc7)CC6)CC5)cc4[nH]3)n[nH]c2C1` (stereo not shown) [Compound 35, 3-(5-(4-((1-(2-(6,6-dimethyl-4,5,6,7-tetrahydro-1H-indazol-3-yl)-1H-indole-6-carbonyl)piperidin-4-yl)methyl)piperazin-1-yl)pyridin-2-yl)piperidine-2,6-dione], in data set [1], the AUC(0-t) was 12 µM·h, the concentration peaked (Cmax) at 2000 nM and the time to peak (Tmax) is 2 h. In addition, in data set [2], the DC50 is under 0.01 nM and the maximal degradation (Dmax) was determined as 86%.

`C[C@@]12Cc3[nH]nc(C(=O)Nc4cnn(CC5CN(C(=O)C6CN(c7ccc(C8CCC(=O)NC8=O)cn7)C6)C5)c4)c3C[C@@H]1C2(F)F` (stereo partly drawn) [Compound 23, (4aS,5aR)—N-(1-((1-(1-(5-(2,6-dioxopiperidin-3-yl)pyridin-2-yl)azetidine-3-carbonyl)azetidin-3-yl)methyl)-1H-pyrazol-4-yl)-5,5-difluoro-5a-methyl-1,4,4a,5,5a,6-hexahydrocyclopropa[f]indazole-3-carboxamide]: in data set [2], the Dmax amounted to 85%.

For `C[C@@]12Cc3[nH]nc(C(=O)Nc4cnn(CC5CN(C(=O)C6CCN(c7ccc(C8CCC(=O)NC8=O)cn7)CC6)C5)c4)c3C[C@@H]1C2(F)F` (stereo partly drawn) [Compound 22, (4aS,5aR)—N-(1-((1-(1-(5-(2,6-dioxopiperidin-3-yl)pyridin-2-yl)piperidine-4-carbonyl)azetidin-3-yl)methyl)-1H-pyrazol-4-yl)-5,5-difluoro-5a-methyl-1,4,4a,5,5a,6-hexahydrocyclopropa[f]indazole-3-carboxamide], in data set [2], the Dmax is 90%.
